In US20160122821A1, “GENETIC MARKERS OF ANTIPSYCHOTIC RESPONSE” (SUREGENE, LLC, priority 2013, published 2016):

Columns and labels:
[1] = tested on: Caucasian patients with schizophrenia (CATIE); assay: Genetic association (linear regression, additive model) of SNP alleles with MMRM-modelled change in PANSS Total Score under antipsychotic treatment, CATIE trial; assay type: in vivo, human; conditions: rs1315115, located in an intron of NPAS3
Experimental: For the CATIE study, individual cases were diagnosed as having SZ based on DSM-III/IV criteria. Treatment response for all patients was assessed using the Positive and Negative Syndrome Scale (PANSS) (Kay et al., 1987; Kay et al., 1989; Leucht et al., 2005). […] To avoid possible bias in post hoc selection of a treatment response variable, the inventors used the mixed model repeated measures (MMRM) approach developed by van den Oord and coworkers (van den Oord et al., 2009). […] The design of the CATIE study, including details of consent for genetic analyses, has been described in detail by others (Lieberman et al., 2005; Stroup et al., 2003; Sullivan et al., 2008). Only retrospective genetic analyses, judged to be exempt from human studies requirements by an IRB, were conducted in the current study. Consented DNA samples were obtained from the Rutgers University Cell and DNA Repository in collaboration with […]. […] All of these patients self-reported as having exclusively European ancestry. […] Genotyping was performed on a fee for service basis according to Illumina's standard operating procedures. Raw intensity files were processed using Illumina® BeadStudio version 1.7.4 software. […] Only two of these had been previously genotyped in the CATIE sample. […] To allow comparison to previously published PGx findings for CATIE and to avoid possible bias in post-hoc selection of a treatment response variable, the inventors used the mixed model repeated measures (MMRM) approach developed by Van den Oord and coworkers (van den Oord et al., 2009; […] et al., 2011). Briefly, this method models random effects by introducing random slopes for treatment effects, allowing treatment effects to be different across subjects. The MMRM approach serves to increase the statistical power to detect genetic associations by increasing the precision in measuring change in PANSS Total Score (PANSS-T) by accounting for variance due to baseline PANSS-T, and treatment, as well as smoothing out the random fluctuations in PANSS-T between visits due to various uncontrolled variables. […] Bozeman, Mont.). Quantile-Quantile (QQ) plots were prepared using the R statistical package version 2.14.1. For comparison purposes, original CATIE-provided SNP genotypes in specific genes were evaluated using the same genetic analysis. Haplotype association integrating newly generated and original genotypes for specific regions was carried out in SVS using haplotype blocks predefined by Haploview software. […] For each of the SNPs listed the reference SNP (rs) number is provided, which provides the known sequence context for the given SNP (see, e.g., National Center for Biotechnology Information (NCBI) SNP database available on the world wide web at ncbi.nlm.nih.gov/snp).

[2] = tested on: Caucasian patients with schizophrenia (CATIE); conditions: SNPs in NPAS3; Lavedan et al., 2009; cited from earlier work

SMILES	association of SNP with response [1]	association of SNPs with response [2]
Cc1nc2n(c(=O)c1CCN1CCC(c3noc4cc(F)ccc34)CC1)CCCC2 [Risperidone, risperidone]	associated with response	
COc1cc(C(C)=O)ccc1OCCCN1CCC(c2noc3cc(F)ccc23)CC1 [iloperidone]		association of SNPs in NPAS3 with response
